Target: recombinant human nicotinic acid receptor (NAR) (Homo sapiens, UniProt Q8TDS4)
Experiment: Nicotinic acid receptor assay: inhibition of forskolin-stimulated cAMP accumulation (MesoScale Discovery cAMP detection kit) in CHO cells
Format: cell-based
Conditions: CHO cells expressing recombinant human NAR, activity class, read-out: NA EC50 camp
Protocol: The nicotinic acid receptor agonist activity of the inventive compounds was determined by following the inhibition of forskolin-stimulated cAMP accumulation in cells using the MesoScale Discovery cAMP detection kit following the manufacturer's protocol. Briefly, Chinese Hamster Ovary (CHO) cells expressing recombinant human nicotinic acid receptor (NAR) were harvested enzymatically, washed 1× in phosphate buffered saline (PBS) and resuspended in PBS containing 0.5 mM IBMX at 3×10^6 cells/mL. Ten μL of cell suspension was added to each well of a 384-well plate which contained 10 μL of test compounds. Test compounds were diluted with PBS containing 6 μM of forskolin. Plates were incubated for 30 minutes at room temperature after the addition of cells. Lysis buffer containing cAMP-Tag was added to each well (10 μL/well) as per the manufacturer's protocol. Plates were then incubated from 45 minutes to overnight. Prior to reading, 10 μt of read buffer was added to each well, and the plate was read in a Sector 6000 plate imager. The signal was converted to cAMP concentration using a standard curve run on each plate. Compound EC50 values were determined from concentration gradients of test compounds.

Sequence of recombinant human nicotinic acid receptor (NAR) (Q8TDS4 whole entry): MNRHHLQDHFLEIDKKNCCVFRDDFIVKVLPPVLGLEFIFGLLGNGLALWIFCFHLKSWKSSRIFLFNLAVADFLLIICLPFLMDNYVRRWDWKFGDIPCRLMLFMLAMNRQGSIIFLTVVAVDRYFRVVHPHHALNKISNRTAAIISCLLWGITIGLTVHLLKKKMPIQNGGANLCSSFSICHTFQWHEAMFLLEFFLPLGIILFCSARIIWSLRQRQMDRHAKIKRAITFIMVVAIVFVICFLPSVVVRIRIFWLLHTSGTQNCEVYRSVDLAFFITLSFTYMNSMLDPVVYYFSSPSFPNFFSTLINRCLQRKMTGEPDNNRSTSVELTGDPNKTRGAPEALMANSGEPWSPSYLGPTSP

In the case of `O=c1[nH]c(=O)c2c(Cc3cccc(Br)c3)cc(=O)oc2[nH]1` [Compound 238], the EC50 is reported as 0.1 to 1 µM.

Reference: US20100227873A1, “NITROGEN-CONTAINING HETEROCYCLIC COMPOUNDS AND METHODS OF USE THEREOF” (Schering Corporation, priority 2005, published 2010)
